Assay results reported in ChEMBL document CHEMBL4627246, “Pyroglutamide-Based P2X7 Receptor Antagonists Targeting Inflammatory Bowel Disease” (J Med Chem, 2020).

Tests used:
Assay type in all cases: cell-based
U-251 = experiment: Cytotoxicity against human U251 cells assessed as effect on cell growth at 10 uM incubated for 48 hrs by sulforhodamine B assay; settings: u-251, 48 h
Hs-578T = experiment: Cytotoxicity against human Hs 578T cells assessed as effect on cell growth at 10 uM incubated for 48 hrs by sulforhodamine B assay
NCI-H460 = experiment: Cytotoxicity against human NCI-H460 cells assessed as effect on cell growth at 10 uM incubated for 48 hrs by sulforhodamine B assay; settings: nci-h460, 48 h
MDA-MB-435 = experiment: Cytotoxicity against human MDA-MB-435 cells assessed as effect on cell growth at 10 uM incubated for 48 hrs by sulforhodamine B assay; settings: mda-mb-435, 48 h
CAKI-1 = experiment: Growth inhibition of human Caki1 cells assessed as growth percentage at 10 uM incubated for 48 hrs by sulforhodamine B assay; settings: caki-1, 48 h
DU-145 = experiment: Cytotoxicity against human DU145 cells assessed as effect on cell growth at 10 uM incubated for 48 hrs by sulforhodamine B assay; settings: du-145, 48 h
NCI-H322M = experiment: Cytotoxicity against human NCI-H322M cells assessed as effect on cell growth at 10 uM incubated for 48 hrs by sulforhodamine B assay
BT-549 = experiment: Cytotoxicity against human BT549 cells assessed as effect on cell growth at 10 uM incubated for 48 hrs by sulforhodamine B assay; settings: bt-549, 48 h
HCT-15 = experiment: Cytotoxicity against human HCT15 cells assessed as effect on cell growth at 10 uM incubated for 48 hrs by sulforhodamine B assay; settings: hct-15, 48 h
UACC-62 = experiment: Cytotoxicity against human UACC62 cells assessed as effect on cell growth at 10 uM incubated for 48 hrs by sulforhodamine B assay; settings: uacc-62, 48 h
HT-29 = experiment: Cytotoxicity against human HT-29 cells assessed as effect on cell growth at 10 uM incubated for 48 hrs by sulforhodamine B assay; settings: ht-29, 48 h
UO-31 = experiment: Cytotoxicity against human UO31 cells assessed as effect on cell growth at 10 uM incubated for 48 hrs by sulforhodamine B assay; settings: uo-31, 48 h
HCT-116 = experiment: Cytotoxicity against human HCT116 cells assessed as effect on cell growth at 10 uM incubated for 48 hrs by sulforhodamine B assay; settings: hct-116, 48 h
SNB-75 = experiment: Cytotoxicity against human SNB75 cells assessed as effect on cell growth at 10 uM incubated for 48 hrs by sulforhodamine B assay; settings: snb-75, 48 h
KM12 = experiment: Cytotoxicity against human KM12 cells assessed as effect on cell growth at 10 uM incubated for 48 hrs by sulforhodamine B assay; settings: km12, 48 h
IGROV-1 = experiment: Cytotoxicity against human IGROV1 cells assessed as effect on cell growth at 10 uM incubated for 48 hrs by sulforhodamine B assay; settings: igrov-1, 48 h
RPMI-8226 = experiment: Cytotoxicity against human RPMI8226 cells assessed as effect on cell growth at 10 uM incubated for 48 hrs by sulforhodamine B assay; settings: rpmi-8226, 48 h
ACHN = experiment: Cytotoxicity against human ACHN cells assessed as effect on cell growth at 10 uM incubated for 48 hrs by sulforhodamine B assay
MDA-MB-468 = experiment: Cytotoxicity against human MDA-MB-468 cells assessed as effect on cell growth at 10 uM incubated for 48 hrs by sulforhodamine B assay; settings: mda-mb-468, 48 h
MCF7 = experiment: Cytotoxicity against human MCF7 cells assessed as effect on cell growth at 10 uM incubated for 48 hrs by sulforhodamine B assay; settings: mcf7, 48 h

Measured: Activity

COc1ccc(CN2C(=O)CC[C@H]2C(=O)NCCc2ccccc2)cc1
Non-Toxic: all assays above

CN(Cc1ccccc1)C(=O)[C@@H]1CCC(=O)N1Cc1ccc(Cl)cc1Cl
Non-Toxic: all assays above

CN1C(=O)C(C)(C)C[C@H]1C(=O)NCc1cccc(C(F)(F)F)c1Cl
Non-Toxic: all assays above

O=C(NCc1ccccc1Cl)[C@@H]1CCC(=O)N1Cc1ccc(Cl)cc1
Non-Toxic: all assays above

O=C(NCCc1ccc(Cl)cc1Cl)[C@@H]1CCC(=O)N1c1ccccc1
Non-Toxic: all assays above

O=C(NCCc1ccccc1)[C@@H]1CCC(=O)N1Cc1ccc(Br)cc1
Non-Toxic: all assays above

CN1CCN(/C=C2\C[C@@H](C(=O)NCc3ccc(Cl)cc3Cl)N(c3cccs3)C2=O)CC1
Non-Toxic: all assays above

O=C(NCc1ccc(Cl)cc1Cl)[C@@H]1CCC(=O)N1Cc1ccccc1
Non-Toxic: all assays above

CN(C)/C=C1\C[C@H]2C(=O)N(Cc3ccc(Cl)cc3Cl)C(N(C)C)N2C1=O (stereo not given in full)
Non-Toxic: all assays above

O=C(NCc1ccccc1Cl)[C@@H]1CCC(=O)N1Cc1ccccc1
Non-Toxic: all assays above

O=C(Nc1ccc(Cl)cc1Cl)[C@@H]1CCC(=O)N1Cc1ccccc1Cl
Non-Toxic: all assays above

COc1ccc(N2C(=O)CC[C@H]2C(=O)NCc2ccc(Cl)cc2Cl)cc1
Non-Toxic: all assays above

O=C(NCc1ccc(Cl)cc1Cl)[C@@H]1CCC(=O)N1Cc1ccc(Cl)cc1
Non-Toxic: all assays above

O=C(NCc1ccc(Cl)cc1Cl)c1ccccn1
Non-Toxic: all assays above
